According to ChEMBL document CHEMBL3392926, “Antiprotozoal Activity Profiling of Approved Drugs: A Starting Point toward Drug Repositioning”:

Experiments:
Leishmania donovani [1] = experiment: microbe, parasite or virus in culture; assay type: functional, organism-based, MHOM/ET/67/L82
Description: DNDI: Leish (macro) in Vitro, 96 hour

cells [2] = assay type: functional, cell-based; details: Mus musculus, NMRI, BalbC or CD1 mice, Macrophage, 96 h
Description: DNDI: Cytotoxicity in Vitro, 96 hour, in mouse macrophages (infected-amastigotes)

Leishmania donovani [3] = experiment: microbe, parasite or virus in culture; assay type: functional, organism-based, MHOM/ET/67/L82; remark: listed apart in the source
Description: DNDI: Leish (axenic) in Vitro, 72 hour

Plasmodium falciparum = experiment: microbe, parasite or virus in culture; assay type: functional, organism-based, K1
Description: DNDI: Malaria in Vitro, 72 hour

cells [4] = assay type: functional, cell-based; details: Rattus norvegicus, L6, 72 h
Description: DNDI: Cytotoxicity in Vitro, 72 hour, in rat skeletal myoblast cells

Trypanosoma cruzi = experiment: microbe, parasite or virus in culture; assay type: functional, organism-based, Tulahuen C4 (LacZ)
Description: DNDI: Chagas in Vitro, 96 hour

[5] = tested on: Trypanosoma brucei rhodesiense; experiment: microbe, parasite or virus in culture; assay type: functional, organism-based, STIB 900
Description: DNDI: HAT in Vitro, 72 hour

[6] = Leishmania donovani, MHOM/ET/67/L82, 96 h
[7] = Leishmania donovani, MHOM/ET/67/L82, 72 h
[8] = Plasmodium falciparum, K1, 72 h
[9] = Trypanosoma cruzi, Tulahuen C4 (LacZ), 96 h
[10] = Trypanosoma brucei, STIB 900, 72 h

Compound | IC50 (Leishmania donovani [1]; [6]) [µM] | IC50 (cells [2]) [µM] | IC50 (Leishmania donovani [3]; [7]) [µM] | IC50 (Plasmodium falciparum; [8]) [µM] | IC50 (cells [4]) [µM] | IC50 (Trypanosoma cruzi; [9]) [µM] | IC50 [5, 10] [µM] | IC50 (Leishmania donovani [1]) [µM] | IC50 (Trypanosoma cruzi) [µM] | IC50 [5] [µM] | IC50 (Leishmania donovani [3]) [µM] | IC50 (Plasmodium falciparum) [µM]
CCn1cc(C(=O)O)c(=O)c2cc(F)c(N3CCNCC3)nc21 [ENOXACIN] | > 93.7 | > 93.7 | > 312 | 76.8 | 25 | – | – | – | – | – | – | –
CC(=O)OCC(CCn1cnc2cnc(N)nc21)COC(C)=O [FAMCICLOVIR] | > 93.4 | > 93.4 | > 311 | > 156 | 180 | – | – | – | – | – | – | –
OC(Cn1cncn1)(Cn1cncn1)c1ccc(F)cc1F [FLUCONAZOLE] | > 98 | > 98 | – | – | > 294 | 9.96 | – | – | – | – | – | –
OCCN1CCN(CCCN2c3ccccc3Sc3ccc(C(F)(F)F)cc32)CC1 [FLUPHENAZINE] | – | 22.9 | – | – | 11.5 | – | – | – | – | – | – | –
Nc1nc2c(ncn2COC(CO)CO)c(=O)[nH]1 [GANCICLOVIR] | > 118 | > 118 | > 392 | > 196 | 179 | – | – | – | – | – | – | –
CC(=O)N1CCN(c2ccc(OCC3COC(Cn4ccnc4)(c4ccc(Cl)cc4Cl)O3)cc2)CC1 (stereo not drawn) [KETOCONAZOLE] | > 18.8 | – | 38.8 | – | 51 | 0.27 | 33.1 | – | – | – | – | –
CN1CCC(=C2c3ccccc3CC(=O)c3sccc32)CC1 [KETOTIFEN] | > 97 | > 97 | > 291 | 0.75 | 147 | – | 15.2 | – | – | – | – | –
Cc1oncc1C(=O)Nc1ccc(C(F)(F)F)cc1 [LEFLUNOMIDE] | > 111 | > 111 | 21.8 | > 18.5 | 124 | – | – | – | – | – | – | –
O=C(O)c1nn(Cc2ccc(Cl)cc2Cl)c2ccccc12 [LONIDAMINE] | > 93.4 | > 93.4 | 8.66 | > 15.6 | 273 | – | – | – | – | – | – | –
Cc1ncc([N+](=O)[O-])n1CCO [METRONIDAZOLE] | > 175 | > 175 | – | – | 339 | – | – | – | – | – | – | –
O=C1CN(/N=C/c2ccc([N+](=O)[O-])o2)C(=O)N1 [NITROFURANTOIN] | > 41.8 | 125 | 2.12 | – | 90.3 | 4.35 | 0.5 | – | – | – | – | –
Cc1ncc([N+](=O)[O-])n1CC(O)CCl (stereo not drawn) [ORNIDAZOLE] | > 136 | > 136 | > 136 | – | > 408 | – | 25.9 | – | – | – | – | –
Nc1nc(O)c2ncn(CCC(CO)CO)c2n1 [PENCICLOVIR] | > 118 | > 118 | > 395 | – | 220 | – | > 395 | – | – | – | – | –
Cc1nc2ccccn2c(=O)c1CCN1CCC(C(=O)c2ccc(F)cc2)CC1 [PIRENPERONE] | > 76.2 | > 76.2 | – | 4.35 | 232 | – | 30 | – | – | – | – | –
CN1CCC(=C2c3ccccc3CCc3sccc32)CC1 [PIZOTYLINE] | > 33.9 | > 102 | – | 1.86 | 45 | 30.6 | 3.99 | – | – | – | – | –
NC(=O)c1cnccn1 [PYRAZINAMIDE] | > 244 | > 244 | > 812 | – | 458 | – | > 812 | – | – | – | – | –
CCc1nc(N)nc(N)c1-c1ccc(Cl)cc1 [PYRIMETHAMINE] | > 12.1 | > 12.1 | – | – | 2.51 | 5.71 | 6.75 | – | – | – | – | –
CC(C)c1nc(CN(C)C(=O)N[C@H](C(=O)N[C@@H](Cc2ccccc2)C[C@H](O)[C@H](Cc2ccccc2)NC(=O)OCc2cncs2)C(C)C)cs1 [RITONAVIR] | > 41.6 | – | 8.97 | 16.2 | – | 20.7 | 4.3 | – | – | – | – | –
Cn1c([N+](=O)[O-])cnc1N1CCN(S(C)(=O)=O)C1=O [SATRANIDAZOLE] | > 104 | > 104 | 10.4 | – | > 311 | 19.1 | 18.7 | – | – | – | – | –
Cc1ncc([N+](=O)[O-])n1CC(C)O (stereo not drawn) [SECNIDAZOLE] | > 161 | > 161 | > 161 | – | > 483 | > 161 | 28.7 | – | – | – | – | –
Cc1cn([C@H]2C=C[C@@H](CO)O2)c(=O)[nH]c1=O [STAVUDINE] | > 134 | > 134 | > 446 | – | 266 | – | – | – | – | – | – | –
Nc1ccc(S(=O)(=O)Nc2ncccn2)cc1 [SULFADIAZINE] | > 12 | 40.1 | – | 1.44 | 20.6 | 24.9 | 18.4 | – | – | – | – | –
Cc1cn([C@H]2C[C@H](N=[N+]=[N-])[C@@H](CO)O2)c(=O)[nH]c1=O [ZIDOVUDINE] | > 112 | > 112 | > 374 | – | 207 | – | – | – | – | – | – | –
AURANOFIN | – | – | – | – | – | – | – | > 1.47 | 2.27 | 0.01 | 0.11 | 1.67
